Test results: the supplement of paper PMC10307832

How the values were obtained:
Assay in all cases: relative viability (nuclei count vs DMSO), 5 days (fraction); higher = more cells survive
[1] = tested on: ABC-1
Procedure, shortened: (§1)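 Lung cancer cell lines in 1536-well plates were dosed by pin tool the day after seeding, either with one drug alone or with a fixed anchor-drug dose plus five library-drug doses (not always all listed) in √10 steps. After 5 days, cells were fixed and their nuclei stained in one step (final 0.05% Triton X-100, 1% formaldehyde, 1 ug/ml Hoechst), then counted on 4× images. Relative viability is the nuclei count in treated wells divided by that in vehicle wells. Values are medians of duplicate plates.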

[2] = tested on: COR-L23
Procedure, shortened: as §1

[3] = tested on: EPLC-272H
Procedure, shortened: as §1

[4] = tested on: HARA
Procedure, shortened: as §1

[5] = tested on: HCC-15
Procedure, shortened: as §1

[6] = tested on: HCC-78
Procedure, shortened: as §1

[7] = tested on: LC-2-ad
Procedure, shortened: as §1

[8] = tested on: LU99A
Procedure, shortened: as §1

[9] = tested on: NCI-H1355
Procedure, shortened: as §1

[10] = tested on: NCI-H1651
Procedure, shortened: as §1

[11] = tested on: NCI-H1915
Procedure, shortened: as §1

[12] = tested on: NCI-H1993
Procedure, shortened: as §1

[13] = tested on: NCI-H2023
Procedure, shortened: as §1

[14] = tested on: NCI-H2085
Procedure, shortened: as §1

[15] = tested on: NCI-H2126
Procedure, shortened: as §1

[16] = tested on: NCI-H2342
Procedure, shortened: as §1

[17] = tested on: NCI-H2347
Procedure, shortened: as §1

[18] = tested on: NCI-H358
Procedure, shortened: as §1

[19] = tested on: NCI-H650
Procedure, shortened: as §1

[20] = tested on: NCI-H838
Procedure, shortened: as §1

[21] = tested on: PC-14
Procedure, shortened: as §1

[22] = tested on: SW 1573
Procedure, shortened: as §1

[23] = tested on: UMC-11
Procedure, shortened: as §1

NC(=O)Nc1cc(-c2cccc(F)c2)sc1C(=O)N[C@H]1CCCNC1 [AZD7762] + O=C(c1cc(Cc2n[nH]c(=O)c3ccccc23)ccc1F)N1CCN(C(=O)C2CC2)CC1 [Olaparib] (partner 8 µM)
relative viability ([1]; first compound 0.01 µM): 0.968 | relative viability ([1]; first compound 0.03162 µM): 0.857 | relative viability ([1]; first compound 0.1 µM): 0.893 | relative viability ([1]; first compound 0.3162 µM): 0.938 | relative viability ([1]; first compound 1 µM): 0.685 | relative viability ([2]; first compound 0.01 µM): 0.405 | relative viability ([2]; first compound 0.03162 µM): 0.248 | relative viability ([2]; first compound 0.1 µM): 0.215 | relative viability ([2]; first compound 0.3162 µM): 0.166 | relative viability ([2]; first compound 1 µM): 0.0843 | relative viability ([3]; first compound 0.01 µM): 1.08 | relative viability ([3]; first compound 0.03162 µM): 0.707 | relative viability ([3]; first compound 0.1 µM): 0.586 | relative viability ([3]; first compound 0.3162 µM): 0.219 | relative viability ([3]; first compound 1 µM): 0.0768 | relative viability ([4]; first compound 0.01 µM): 0.768 | relative viability ([4]; first compound 0.03162 µM): 0.759 | relative viability ([4]; first compound 0.1 µM): 0.507 | relative viability ([4]; first compound 0.3162 µM): 0.301 | relative viability ([4]; first compound 1 µM): 0.229 | relative viability ([5]; first compound 0.01 µM): 0.824 | relative viability ([5]; first compound 0.03162 µM): 0.948 | relative viability ([5]; first compound 0.1 µM): 0.898 | relative viability ([5]; first compound 0.3162 µM): 1.04 | relative viability ([5]; first compound 1 µM): 0.983 | relative viability ([6]; first compound 0.01 µM): 0.86 | relative viability ([6]; first compound 0.03162 µM): 1 | relative viability ([6]; first compound 0.1 µM): 0.775 | relative viability ([6]; first compound 0.3162 µM): 0.85 | relative viability ([6]; first compound 1 µM): 0.515 | relative viability ([7]; first compound 0.01 µM): 0.818 | relative viability ([7]; first compound 0.03162 µM): 0.772 | relative viability ([7]; first compound 0.1 µM): 0.781 | relative viability ([7]; first compound 0.3162 µM): 0.703 | relative viability ([7]; first compound 1 µM): 0.606 | relative viability ([8]; first compound 0.01 µM): 0.253 | relative viability ([8]; first compound 0.03162 µM): 0.246 | relative viability ([8]; first compound 0.1 µM): 0.202 | relative viability ([8]; first compound 0.3162 µM): 0.148 | relative viability ([8]; first compound 1 µM): 0.124 | relative viability ([9]; first compound 0.01 µM): 0.705 | relative viability ([9]; first compound 0.03162 µM): 0.798 | relative viability ([9]; first compound 0.1 µM): 0.862 | relative viability ([9]; first compound 0.3162 µM): 0.862 | relative viability ([9]; first compound 1 µM): 0.615 | relative viability ([10]; first compound 0.01 µM): 0.184 | relative viability ([10]; first compound 0.03162 µM): 0.202 | relative viability ([10]; first compound 0.1 µM): 0.156 | relative viability ([10]; first compound 0.3162 µM): 0.153 | relative viability ([10]; first compound 1 µM): 0.137 | relative viability ([11]; first compound 0.01 µM): 0.275 | relative viability ([11]; first compound 0.03162 µM): 0.308 | relative viability ([11]; first compound 0.1 µM): 0.272 | relative viability ([11]; first compound 0.3162 µM): 0.209 | relative viability ([11]; first compound 1 µM): 0.189 | relative viability ([12]; first compound 0.01 µM): 1.18 | relative viability ([12]; first compound 0.03162 µM): 1.03 | relative viability ([12]; first compound 0.1 µM): 1.12 | relative viability ([12]; first compound 0.3162 µM): 1.42 | relative viability ([12]; first compound 1 µM): 0.922 | relative viability ([13]; first compound 0.01 µM): 0.463 | relative viability ([13]; first compound 0.03162 µM): 0.323 | relative viability ([13]; first compound 0.1 µM): 0.171 | relative viability ([13]; first compound 0.3162 µM): 0.111 | relative viability ([13]; first compound 1 µM): 0.0963 | relative viability ([14]; first compound 0.01 µM): 0.872 | relative viability ([14]; first compound 0.03162 µM): 0.86 | relative viability ([14]; first compound 0.1 µM): 0.917 | relative viability ([14]; first compound 0.3162 µM): 0.88 | relative viability ([14]; first compound 1 µM): 0.903 | relative viability ([15]; first compound 0.01 µM): 0.948 | relative viability ([15]; first compound 0.03162 µM): 0.982 | relative viability ([15]; first compound 0.1 µM): 0.966 | relative viability ([15]; first compound 0.3162 µM): 0.941 | relative viability ([15]; first compound 1 µM): 0.885 | relative viability ([16]; first compound 0.01 µM): 0.449 | relative viability ([16]; first compound 0.03162 µM): 0.393 | relative viability ([16]; first compound 0.1 µM): 0.496 | relative viability ([16]; first compound 0.3162 µM): 0.457 | relative viability ([16]; first compound 1 µM): 0.515 | relative viability ([17]; first compound 0.01 µM): 0.612 | relative viability ([17]; first compound 0.03162 µM): 0.656 | relative viability ([17]; first compound 0.1 µM): 0.78 | relative viability ([17]; first compound 0.3162 µM): 0.693 | relative viability ([17]; first compound 1 µM): 0.544 | relative viability ([18]; first compound 0.01 µM): 0.872 | relative viability ([18]; first compound 0.03162 µM): 0.64 | relative viability ([18]; first compound 0.1 µM): 0.715 | relative viability ([18]; first compound 0.3162 µM): 0.408 | relative viability ([18]; first compound 1 µM): 0.212 | relative viability ([19]; first compound 0.01 µM): 0.417 | relative viability ([19]; first compound 0.03162 µM): 0.49 | relative viability ([19]; first compound 0.1 µM): 0.494 | relative viability ([19]; first compound 0.3162 µM): 0.446 | relative viability ([19]; first compound 1 µM): 0.337 | relative viability ([20]; first compound 0.01 µM): 0.86 | relative viability ([20]; first compound 0.03162 µM): 0.774 | relative viability ([20]; first compound 0.1 µM): 0.744 | relative viability ([20]; first compound 0.3162 µM): 0.493 | relative viability ([20]; first compound 1 µM): 0.169 | relative viability ([21]; first compound 0.01 µM): 0.248 | relative viability ([21]; first compound 0.03162 µM): 0.157 | relative viability ([21]; first compound 0.1 µM): 0.0969 | relative viability ([21]; first compound 0.3162 µM): 0.0837 | relative viability ([21]; first compound 1 µM): 0.0568 | relative viability ([22]; first compound 0.01 µM): 0.453 | relative viability ([22]; first compound 0.03162 µM): 0.526 | relative viability ([22]; first compound 0.1 µM): 0.403 | relative viability ([22]; first compound 0.3162 µM): 0.408 | relative viability ([22]; first compound 1 µM): 0.221 | relative viability ([23]; first compound 0.01 µM): 0.819 | relative viability ([23]; first compound 0.03162 µM): 0.342 | relative viability ([23]; first compound 0.1 µM): 0.277 | relative viability ([23]; first compound 0.3162 µM): 0.256 | relative viability ([23]; first compound 1 µM): 0.255
